Experiments:
[1] = tested on: canalicular stage human lung ALI explants; assay: Lung ALI explant culture, immunofluorescent staining; assay type: cell-based; settings: for SFTPA staining in ProSFTPC-positive cells: relative to untreated explants
Method: Human fetal lung within the canalicular stage of lung development was utilized for lung ALI explant cultures (specifically 15-18.5 weeks post conception). Small pieces (<0.5 cm diameter) were dissected from distal regions of the lung and placed on Nucleopore Track-Etched Membrane disks (13 mm, 8 μm pore, poly-carbonate) (Sigma, Cat #WHA110414) floating on top of 500 μl of human lung ALI explant media (Advanced DMEM/F-12 (Thermo Fisher, Cat #12634010), 2 mM Glutamax (Thermo Fisher, Cat #35050061), 15 mM HEPES (Corning, Cat #25060CI), 1× B27 Supplement (Thermo Fisher, Cat #17504044) 1×N-2 Supplement (Thermo Fisher, Cat #17502048), 100 U/mL penicillin-streptomycin (Thermo Fisher, Cat #15140122)) in a 24-well tissue culture plate (Thermo Fisher, Cat #12565163). Where indicated, 1 μM A-8301 (APE×BIO Cat #A3133), 100 ng/mL rhTGFβ1 (R&D Systems Cat #240-B-002), 100 ng/mL rhNOGGIN (produced in-house) or 100 ng/mL BMP4 (R&D Systems Cat #314-BP-050) was added to human lung ALI explant media.
All samples processed were fixed for 24 h in 10% Neutral Buffered Formalin at room temperature with gentle agitation. Samples were washed 3× with UltraPure DNase/RNase-free distilled water (Thermo Fisher, Cat #10977015) and dehydrated through an alcohol series consisting of 25%, 50%, 75% and 100% methanol, followed by 100% and 70% ethanol. For tissue and explants each step was performed for at least 1 h. For organoids each step was performed for at least 15 min. In the case of explants and organoids, specimens were embedded in Histogel (VWR Cat #83009-992) prior to paraffin processing. Samples were paraffin processed in an automated tissue processor through the following series: 70%, 80%, 2× 95%, 3× 100% ethanol, 3× xylene and 3× paraffin with 1 h for each step. Tissue was embedded into paraffin blocks and cut into 5 μm-thick sections onto charged glass slides using a microtome. Slides were baked for 1 h at 60° C. immediately prior to staining.
Slides were treated with 2× HistoClear II (National Diagnostics, Cat #HS-202) washes, then rehydrated through washes in 100%, 95%, 70%, 30% ethanol for 4 min each, with buffer exchanges performed halfway through washing. Then, slides were washed 2×5 min with ddH20. Antigen retrieval in 1× Sodium Citrate Buffer (100 mM trisodium citrate (Sigma, Cat #S1804), 0.5% Tween-20 (Thermo Fisher, Cat #BP337), pH 6.0) for 20 min at 99° C. After washing 3× in ddH20 slides were blocked for 1 h with blocking solution: 5% normal donkey serum (Sigma, Cat #D9663), 0.1% Tween-20 in PBS. Slides were then incubated in primary antibodies diluted in blocking solution in a humidified chamber at 4° C. overnight. Slides were washed 3× in 1×PBS for 10 min each. Slides were incubated with secondary antibodies and DAPI (1 μg/mL) diluted in blocking solution for 1 h, then were washed 3× in 1×PBS for 5 min each. Slides were mounted in ProLong Gold (Thermo Fisher, Cat #P369300) and imaged within 2 weeks. Primary and secondary antibodies used in this study are available in Table 1.

[2] = tested on: BTP organoids; assay: BTP organoid differentiation, RT-qPCR of AT2 and BTP markers; assay type: cell-based, human; settings: 7 days
Method: Primary BTP organoid cultures from 15-18.5 weeks post conception lung tissue were established and maintained as previously reported^3,21,22. BTP organoids were maintained in maintenance media (described below) under 8 mg/mL Matrigel (Corning Cat #354234), fed every three days and passaged 1:3 every 7-10 days by needle sheering.
Differentiations were performed on BTP organoids at passage three by removing maintenance media consisting of: DMEM/F-12 (Corning, Cat #10-092-CV), 100 U/mL penicillin-streptomycin (Thermo Fisher, Cat #15140122), 1×B-27 supplement (Thermo Fisher, Cat #17504044), 1× N2 supplement (Thermo Fisher, Cat #17502048), 0.05% BSA (Sigma, Cat #A9647), 50 μg/mL L-ascorbic acid (Sigma,Cat #A4544), 0.4 μM 1-Thioglycerol (Sigma, Cat #M1753), 50 nM all-trans retinoic acid (Sigma, Cat #R2625), 10 ng/ml recombinant human FGF7 (R&D Systems, Cat #251-KG), and 3 μM CHIR99021 (APE×BIO, Cat #A3011) and replacing with differentiation media. For data in FIG. 3 multiple differentiation medias were tested, all of which consisted of maintenance media with the addition of 1 μM A-8301 and/or the addition of 100 ng/ml BMP4 and/or removal of all trans retinoic acid. B-27 supplement without vitamin A (Thermo Fisher, Cat #12587010) was used instead of full B-27 supplement in conditions in which all trans retinoic acid was removed. For data in all FIGS. 4, 6, 7, 10 differentiation media consisted of common components: DMEM/F12, 100 U/mL penicillin-streptomycin, 1×B-27 supplement without vitamin A, 1× N2 supplement, 0.05% BSA, 50 μg/mL L-ascorbic acid, 0.4 μM 1-Thioglycerol. 10 ng/ml recombinant human FGF7, and 3 μM CHIR99021. To make CK+AB differentiation media 1 μM A-8301 and 100 ng/mL BMP4 was added. To make CKDCI differentiation media 50 nM Dexamethasone (Sigma, Cat #D4902), […] 3-isobutyl-1-methylxanthine (Sigma, Cat #I5879) and […] 8-Bromoadensoine 3′,5′-cyclic monophosphate sodium salt (Sigma, Cat #B7880) was added. Differentiations were fed every three days and passaged at seven day intervals by needle sheering.
(§1) Organoids were dislodged from Matrigel using a P1000 tip, pelleted in a 1.5 mL tube and flash frozen by placing the tube in a small amount of liquid nitrogen with minimal residual media. RNA was isolated from frozen pellets using the MagMax-96 Total RNA Isolation kit (Thermo Fisher, Cat #AM1830) according to the manufacturer's recommendations. RNA quality and yield was determined on a Nanodrop 2000 spectrophotometer. Reverse Transcription was performed in triplicate for each biological replicate using the SuperScript VILO cDNA kit with 200 ng RNA per reaction. After Reverse Transcription, cDNA was diluted 1:2 with DNAse/RNAse free water and 1/40th of the final reaction was used for each RT-qPCR measurement. RT-qPCR measurements were performed using a Step One Plus Real-Time PCR System (Thermo Fisher, Cat #43765592 R) using QuantiTect SYBR Green qPCR Master Mix (Qiagen, Cat #204145) with primers at a concentration of 500 nM. Sequences for RT-qPCR primers used in this manuscript are in Table 2.
For RT-qPCR data arbitrary units (AUs) of gene expression was first calculated using the following equation: 2^(GAPDHCt-TargetCt)×10,000. For FIG. 12B, FIG. 5D, FIG. 7I, FIG. 9E, and FIG. 10H the AUs for each biological replicate were calculated from the mean of technical replicates and a ratio paired t-test was performed between the two conditions compared to determine statistical significance (p). […] For FIG. 3E AUs were normalized to AUs of expression in progenitor media for each biological replicate to obtain fold change. Repeated measures one-way ANOVA was performed with Dunnett's correction on linearized (log-transformed) fold change values comparing all experimental conditions to progenitor medium to determine p.

[3] = tested on: CK+AB induced AT2-like organoids; assay: Expansion of AT2-like organoids in SFFF media (growth, RT-qPCR, IF, FACS); assay type: cell-based, human; settings: for MUC5AC expression (RT-qPCR) on removal of the component from SFFF / SFTPC expression (RT-qPCR) on removal of the component from SFFF: SFFF lacking the component vs SFFF
Method: After 21 days of differentiation in CK+AB or CK+DCI organoids were passaged and fed with SFFF or SFFF without FGF10 consisting of: Advanced DMEM/F12, 2 mM Glutamax, 1× B27 supplement, 100 U/mL penicillin-streptomycin, 15 mM HEPES, 0.05% BSA, 10 μM TGFβ inhibitor SB43152 (APExBIO, Cat #A8249), 1 μM p38 MAP kinase inhibitor BIRB796 (APExBIO, Cat #A5639), 3 μM CHIR99021, 50 ng/mL rhEGF (R&D Systems, Cat #236-EG) with (SFFF) or without the addition of 10 ng/mL FGF10 (produced in-house). Organoids were passaged every 7-14 days at a ratio of 1:6 by needle sheering^93.
as §1
Organoids were retrieved from Matrigel by mechanical dissociation with a P1000, washed 2× with 1 mL PBS and, resuspended with TrypLE and incubated at 37° C. until a single cell suspension was obtained with light pipetting (typically 10 min). Cells were washed 3× with 1 mL of FACS buffer consisting of PBS, 2% BSA and 10 μM Y-27632 (APE×BIO, Cat #3008) and then filtered through a […] mesh. Cells were stained for 1 h on ice in FACS buffer with a 1:60 dilution of anti HTII-280 IgM antibody. Cells were washed 3× with 1 mL of FACS buffer before 30 min of staining in FACS buffer with a 1:1000 dilution of anti-mouse IgM-Alexaflour-488 secondary antibody (Jackson Immunoresearch, Cat #715545140) on ice. After 3× washes with 1 mL of FACS buffer cells were suspended in FACS buffer with 1:4000 dilution of DAPI. […] All steps were carried out at 4° C. unless otherwise indicated. Cells were pelleted at 500×G for 5 min in swing bucket rotors. FACS was performed on either a Sony MA900 or the ThermoFisher Bigfoot Spectral Cell Sorter and analyzed in FlowJo v10.

[4] = added to bud tip progenitor media, vs progenitor media
[5] = CK+AB in absence vs presence of ATRA

Cc1cccc(-c2nn(C(=S)Nc3ccccc3)cc2-c2ccnc3ccccc23)n1 [A-8301]
SFTPA staining in ProSFTPC-positive cells ([1]; day 6 ALI explants): increased
BTP marker SOX9 expression (RT-qPCR) [2, 4]: Neither treatment alone significantly reduced
SFTPA1 expression (RT-qPCR) [2, 4]: significantly increased
SFTPC expression (RT-qPCR) [2, 4]: significantly increased

CC1=C(/C=C/C(C)=C/C=C/C(C)=C/C(=O)O)C(C)(C)CCC1 [ATRA, all-trans retinoic acid]
SFTPB expression (RT-qPCR) on removal of ATRA [2, 5]: reduced
SFTPC expression (RT-qPCR) on removal of ATRA [2, 5]: significantly enhancing
SOX9 expression (RT-qPCR) on removal of ATRA [2, 5]: reducing

Cc1ccc(-n2nc(C(C)(C)C)cc2NC(=O)Nc2ccc(OCCN3CCOCC3)c3ccccc23)cc1 [BIRB797, reference compound]
MUC5AC expression (RT-qPCR) on removal of the component from SFFF [3]: increased
SFTPC expression (RT-qPCR) on removal of the component from SFFF [3]: improved expression

TGFβ1: recombinant TGFβ1, activator of TGFβ-signaling, 100 ng/mL
TP63 expression in epithelial cells ([1]; ALI explants): most epithelial cells expressing TP63
ProSFTPC staining ([1]; day 6 ALI explants): reduced
SFTPA staining in ProSFTPC-positive cells ([1]; day 6 ALI explants): barely detectible

B1: BMP4: recombinant BMP4, BMP-activator, 100 ng/mL (R&D Systems) (protein, UniProt P12644 293-408, looked up)
Bone morphogenetic protein 4: SPKHHSQRARKKNKNCRRHSLYVDFSDVGWNDWIVAPPGYQAFYCHGDCPFPLADHLNSTNHAIVQTLVNSVNSSIPKACCVPTELSAISMLYLDEYDKVVLKNYQEMVVEGCGCR
SFTPA staining in ProSFTPC-positive cells ([1]; day 6 ALI explants): robust and readily detectable levels
BTP marker SOX9 expression (RT-qPCR) [2, 4]: Neither treatment alone significantly reduced
HOPX expression (RT-qPCR) [2, 4]: significantly increased
LAMP3 expression (RT-qPCR) [2, 4]: significantly increased
SFTPA1 expression (RT-qPCR) [2, 4]: significantly increased
SFTPB expression (RT-qPCR) [2, 4]: significantly increased

B2: FGF10: recombinant human FGF10, 10 ng/mL, produced in-house, component of SFFF (protein, UniProt O15520 38-208, looked up)
Fibroblast growth factor 10: QALGQDMVSPEATNSSSSSFSSPSSAGRHVRSYNHLQGDVRWRKLFSFTKYFLKIEKNGKVSGTKKENCPYSILEITSVEIGVVAVKAINSNYYLAMNKKGKLYGSKEFNNDCKLKERIEENGYNTYASFNWQHNGRQMYVALNGKGAPRRGQKTRRKNTSAHFLPMVVHS
MUC5AC expression (RT-qPCR) on removal of the component from SFFF [3]: reduction of MUC5AC to near-zero levels
SFTPC expression (RT-qPCR) on removal of the component from SFFF [3]: improved expression
AT2 phenotype of CK+AB differentiated AT2-like cells ([3]; SFFF with vs without FGF10): repressed

B3: NOGGIN: recombinant BMP inhibitor NOGGIN, 100 ng/mL, produced in-house (protein, UniProt Q13253 28-232, looked up)
Noggin: QHYLHIRPAPSDNLPLVDLIEHPDPIFDPKEKDLNETLLRSLLGGHYDPGFMATSPPEDRPGGGGGAAGGAEDLAELDQLLRQRPSGAMPSEIKGLEFSEGLAQGKKQRLSKKLRRKLQMWLWSQTFCPVLYAWNDLGSRFWPRYVKVGSCFSKRSCSVPEGMVCKPSKSVHLTVLRWRCQRRGGQRCGWIPIQYPIISECKCSC
phosphoSMAD1/5/8 staining ([1]; day 6 ALI explants, 100 ng/mL NOGGIN): blocked
SFTPA staining in ProSFTPC-positive cells ([1]; day 6 ALI explants): did not change
